Measurements taken from patent US20080287544A1, “Method for Screening Substance by Measuring PPAR DELTA Activating Effect and Agent” (Teijin Limited, priority 2001, published 2008).

Experiments:
human white adipocytes = assay: Free fatty acid β-oxidation in human white adipocytes ([9,10(n)-3H]palmitic acid, 3H2O release); type: cell-based; conditions: 10 μM, 48 hr, vs DMSO control
Procedure: After human fully differentiated white adipocytes had been prepared in the same manner as in Example 1, the supernatant was removed, and 500 μl of a medium which had been prepared by adding adequate amounts of oleic acid and palmitic acid to an adipocyte medium so that their concentrations were 0.67 mM and 0.33 mM, respectively, was added. Various kinds of test compounds were added to the medium in such a manner that their final concentrations were 10 μM, and subsequently, [9,10(n)-3H]palmitic acid (manufactured by Amersham Pharmacia, final concentration of 1 μCi/ml) was added to each well, and the cells were cultured at 37° C. for 48 hr. The test compounds were YM-16638 of a PPAR δ ligand, WY14643 of a PPAR α ligand, L755,507 of a β3 adrenergic receptor agonist and Rosiglitazone of a PPAR γ ligand. A control was prepared by adding DMSO, which was the solvent for the test compounds, in such a manner that the final concentration was 0.5%, and it was cultured in the same manner as the test compounds. In order to prevent the evaporation of ^3H2O produced by β-oxidation of the [9,10(n)-^3H]palmitic acid by the cells during culture, the culture plates were sealed with mini-culture filters (MS-30055) manufactured by Sumitomo Bakelite Co. Ltd.
After 48-hour culture, 200 μl of the supernatant of the medium was transferred to a 1.5-ml Eppendorf tube, 50 μl of 50% trichloroacetic acid was added, the tube was held on ice for 30 min to produce precipitates, and the mixture was centrifuged for 10 min at 15,000 rpm. Subsequently, in a 20-ml glass vial into which 500 μl of distilled water had been placed in advance, a cap-free 1.5-ml Eppendorf tube was placed, the total amount of the supernatant obtained above was placed into this Eppendorf tube, and the vial was tightly sealed with a polypropylene packing-attached lid. […] Into the ^3H2O-containing distilled water remaining in the vial, 5 ml of a liquid scintillation cocktail (Ultima Gold, manufactured by Packard) was added, and radioactivity was measured after sufficient mixing.

UCP1 = UCP1 expression-enhancing effect in skeletal muscle cells or adipocytes; type: cell-based
UCP2 = conditions: J. Biol. Chem. 276, 10853-10860 (2001); cited from earlier work

Row | Structure (SMILES) | enhancement of β-oxidation in the cells (human white adipocytes) | UCP1 expression-enhancing effect (UCP1) | expression of UCP2 (UCP2)
1 | CCCCCCNC(=O)Nc1ccc(S(=O)(=O)Nc2ccc(CCNC[C@H](O)COc3ccc(O)cc3)cc2)cc1 [L755,507] | no enhancement | – | –
2 | CC#CCC(C)[C@H](O)/C=C/[C@@H]1[C@H]2C/C(=C/CCCC(=O)O)C[C@H]2C[C@H]1O (stereo partly drawn) [Iloprost, 5-{(E)-(1S,5S,6R,7R)-7-hydroxy-6-[(E)-(3S,4RS)-3-hydroxy-4-methyl-5-octen-6-inyl]-bicyclo[3.3.0]-octan-3-ylidene} pentenoic acid] | – | had a UCP1 expression-enhancing effect | –
3 | CCCCC[C@H](O)/C=C/[C@@H]1[C@H]2C/C(=C/CCCC(=O)O)C[C@H]2C[C@H]1O [carbaprostacyclin, 6,9 α-methylene-11 α, 15S-dihydroxy-prosta-5E, 13E-dien-1-oic acid] | – | had a UCP1 expression-enhancing effect | increase the expression of UCP2
4 | Cc1cccc(Nc2cc(Cl)nc(SCC(=O)O)n2)c1C [WY14643] | no enhancement | hardly exhibit a UCP1 expression enhancing effect | –
5 | CN(CCOc1ccc(CC2SC(=O)NC2=O)cc1)c1ccccn1 (stereo not drawn) [Rosiglitazone] | 15% | – | –
6 | CCCCC/C=C\C/C=C\C/C=C\C/C=C\CCCC(=O)O [arachidonic acid] | – | – | increase the expression of UCP2
7 | CCCc1c(OCCCOc2ccc(OCC(=O)O)cc2)ccc(C(C)=O)c1O [L-165041, 4-(3-(2-propyl-3-hydroxy-4-acetyl-phenoxy)propyloxy)-phenoxyacetic acid] | – | – | increase the expression of UCP2
